Assay: Remineralizing properties on EDTA-etched dentin blocks soaked in simulated body fluid (SEM/EDX)
Conditions: 15 μL applied on dentin etched by 10% EDTA; soaked in simulated body fluid for 7 d; PDDAF 280,000 ppm, SDF 38%
Procedure: The volume of both solutions applied on dentin surface is 15 μL.
The remineralizing properties of 280,000 ppm cationic polymer fluoride solution was examined. […] Dentin blocks with the dimensions of 4 mm×4 mm×2 mm were prepared (FIGS. 8C-8D, 9C-9D).

silver diamine fluoride [38% SDF]
minerals formed on re-mineralized dentin surface (EDX): formation of mineral calcium phosphate and silver chloride

— patent US20250026880A1, “POLY(DIALLYLDIMETHYLAMMONIUM) FLUORIDE - A NEW ANTI-CARIES AND REMINERALIZING AGENT” (The University of Hong Kong, priority 2023, published 2025)
